Test results taken from patent publication US20240226074A1, “CELL-OF-ORIGIN TARGETED DRUG REPURPOSING FOR TRIPLE-NEGATIVE AND INFLAMMATORY BREAST CARCINOMA WITH HDAC AND HSP90 INHIBITORS COMBINED WITH NICLOSAMIDE” (priority 2022, published 2024).

Assays:
[1] = test system: IBC02; test: WST cell proliferation assay, IBC02 cells; assay type: cell-based
[2] = test system: IBC03; test: WST cell proliferation assay, IBC03 cells; assay type: cell-based
[3] = test system: KPL4; test: WST cell proliferation assay, KPL4 cells; assay type: cell-based
[4] = test system: SUM149; test: WST cell proliferation assay, SUM149 cells; assay type: cell-based
[5] = test system: SUM190; test: WST cell proliferation assay, SUM190 cells; assay type: cell-based
[6] = cited from earlier work; for peak serum concentrations achieved in different clinical trials: human, in vivo; for Cmax: peak serum concentration, clinical trials, read-out: Phase I-II Cmax
[7] = target: HDAC1 (Homo sapiens, UniProt Q13547); details: previously shown [37]; cited from earlier work
Chain of HDAC1 (Q13547 whole entry): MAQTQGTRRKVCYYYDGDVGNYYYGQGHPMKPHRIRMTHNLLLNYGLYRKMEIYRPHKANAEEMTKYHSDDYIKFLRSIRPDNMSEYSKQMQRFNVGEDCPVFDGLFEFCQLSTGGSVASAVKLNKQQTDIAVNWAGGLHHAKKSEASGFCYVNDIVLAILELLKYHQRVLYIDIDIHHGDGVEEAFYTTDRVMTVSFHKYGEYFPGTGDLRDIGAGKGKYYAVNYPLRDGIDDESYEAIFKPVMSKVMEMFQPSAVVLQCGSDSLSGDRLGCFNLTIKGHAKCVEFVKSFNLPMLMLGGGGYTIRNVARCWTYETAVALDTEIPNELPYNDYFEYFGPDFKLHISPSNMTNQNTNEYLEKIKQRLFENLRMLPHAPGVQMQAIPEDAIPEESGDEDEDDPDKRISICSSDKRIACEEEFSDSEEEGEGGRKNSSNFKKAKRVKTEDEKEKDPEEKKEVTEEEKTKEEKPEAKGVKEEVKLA

[8] = at clinically recommended doses; cited from earlier work
[9] = test system: MFM223; test: WST cell proliferation assay, MFM223 cells; details: 100 nM, 7 days
Description: (§1) The inhibition of cell proliferation by E, N, T and ENT is measured by WST assay.

[10] = test system: HCC1913; test: WST cell proliferation assay, HCC1913 cells; details: 100 nM, 7 days
Description: as §1

[11] = single drug 1000 nM, Belinostat panel
[12] = single drug 500 nM, Belinostat panel
[13] = single drug 100 nM, Entinostat panel (upper part of Table 6)
[14] = single drug 150 nM, Entinostat panel
[15] = single drug 100 nM, Belinostat panel
[16] = single drug 200 nM, Belinostat panel
[17] = single drug 200 nM, Entinostat panel

| Structure (SMILES) | peak serum concentrations achieved in different clinical trials [6] [µM] | Cmax [6] [µM] | Survival of inflammatory breast cancer cells (percent viability vs DMSO) [1, 13] | Survival of inflammatory breast cancer cells (percent viability vs DMSO) [2, 13] | Survival of inflammatory breast cancer cells (percent viability vs DMSO) [3, 13] | Survival of inflammatory breast cancer cells (percent viability vs DMSO) [4, 13] | Survival of inflammatory breast cancer cells (percent viability vs DMSO) [5, 13] | Survival of inflammatory breast cancer cells (percent viability vs DMSO) [1, 15] | Survival of inflammatory breast cancer cells (percent viability vs DMSO) [2, 15] | Survival of inflammatory breast cancer cells (percent viability vs DMSO) [3, 15] | Survival of inflammatory breast cancer cells (percent viability vs DMSO) [4, 15] | Survival of inflammatory breast cancer cells (percent viability vs DMSO) [5, 15] | side effects [8] | other results |
| --- | --- | --- | --- | --- | --- | --- | --- | --- | --- | --- | --- | --- | --- | --- |
| O=C(/C=C/c1cccc(S(=O)(=O)Nc2ccccc2)c1)NO [Belinostat] | 200 | 200 |  |  |  |  |  |  |  |  |  |  |  | Survival of inflammatory breast cancer cells (percent viability vs DMSO) ([1]; single drug 500 nM, Belinostat panel (lower part of Table 6)): 14; Survival of inflammatory breast cancer cells (percent viability vs DMSO) [1, 11]: 0; Survival of inflammatory breast cancer cells (percent viability vs DMSO) [2, 12]: 91; Survival of inflammatory breast cancer cells (percent viability vs DMSO) [2, 11]: 45; Survival of inflammatory breast cancer cells (percent viability vs DMSO) [3, 12]: 91; Survival of inflammatory breast cancer cells (percent viability vs DMSO) [3, 11]: 23; Survival of inflammatory breast cancer cells (percent viability vs DMSO) [4, 12]: 71; Survival of inflammatory breast cancer cells (percent viability vs DMSO) [4, 11]: 21; Survival of inflammatory breast cancer cells (percent viability vs DMSO) [5, 12]: 95; Survival of inflammatory breast cancer cells (percent viability vs DMSO) [5, 11]: 107 |
| Nc1ccccc1NC(=O)c1ccc(CNC(=O)OCc2cccnc2)cc1 [Entinostat] |  |  | 21 | 61 | 45 | 99 | 159 |  |  |  |  |  |  | Survival of inflammatory breast cancer cells (percent viability vs DMSO) [1, 14]: 12; Survival of inflammatory breast cancer cells (percent viability vs DMSO) [2, 14]: 35; Survival of inflammatory breast cancer cells (percent viability vs DMSO) [3, 14]: 20; Survival of inflammatory breast cancer cells (percent viability vs DMSO) [4, 14]: 102; Survival of inflammatory breast cancer cells (percent viability vs DMSO) [5, 14]: 223; inhibition of HDAC1 [7]: inhibits |
| O=C(Nc1ccc([N+](=O)[O-])cc1Cl)c1cc(Cl)ccc1O [Niclosamide] | 2 | 2 | 20 | 46 | 91 | 113 | 135 | 17 | 35 | 104 | 74 | 133 | itching, drowsiness, dizziness, and skin rash | sensitivity of cell line (FIG. 2) [9]: exceptional sensitivity; sensitivity of cell line (FIG. 2) [10]: exceptional sensitivity |
| CCc1cc(C(N)=O)ccc1-n1nc(C(C)C)c2c(-n3cnc(-c4cnn(C)c4)c3)ccnc21 [Pimitespib] | 7 | 7 | 107 | 89 | 89 | 115 | 114 | 114 | 89 | 102 | 111 | 112 | diarrhea, decreased appetite, malaise, renal impairment, and anemia | Survival of inflammatory breast cancer cells (percent viability vs DMSO) [1, 16]: 105; Survival of inflammatory breast cancer cells (percent viability vs DMSO) [1, 17]: 114; Survival of inflammatory breast cancer cells (percent viability vs DMSO) [2, 16]: 81; Survival of inflammatory breast cancer cells (percent viability vs DMSO) [2, 17]: 81; Survival of inflammatory breast cancer cells (percent viability vs DMSO) [3, 16]: 136; Survival of inflammatory breast cancer cells (percent viability vs DMSO) [3, 17]: 118; Survival of inflammatory breast cancer cells (percent viability vs DMSO) [4, 16]: 158; Survival of inflammatory breast cancer cells (percent viability vs DMSO) [4, 17]: 172; Survival of inflammatory breast cancer cells (percent viability vs DMSO) [5, 16]: 100; Survival of inflammatory breast cancer cells (percent viability vs DMSO) [5, 17]: 102 |
| O=C(CCCCCCC(=O)Nc1ccccc1)NO [Vorinostat] |  | 40 |  |  |  |  |  |  |  |  |  |  |  |  |
